Like-named read-outs stand apart in the source and are kept apart here.
Columns and labels:
[1] = test system: carrot (Daucus carota L. cv Danvers) aspartokinase form I (AKI, Peak I; lysine-sensitive) of the bifunctional AK-HSDH protein; experiment: Aspartokinase activity, hydroxamate method (first eluting DEAE peak, AKI); format: biochemical; conditions: for % Control AK activity +lys (10 mM): 10 mM lysine; for % Control AK activity +thr (10 mM): 10 mM threonine
Method: Aspartokinase activity was assayed by the hydroxamate method as described in P. Bryan et al., Biochem Biophys Res Comm 41: 1211-1217 (1970). […] The reaction was terminated by the addition of a solution of 0.37 M FeCl3, 0.20 M trichloroacetic aid and 0.72 M HCl. One unit (U) of activity produced 1 umol β-aspartylphosphate hr^-1. Zero time controls were included.

[2] = target: T1, carrot (Daucus carota L. cv Danvers) aspartokinase form II (AKII, Peak II; threonine-sensitive) of the bifunctional AK-HSDH protein (Daucus carota, UniProt P37142); experiment: Aspartokinase activity, hydroxamate method (second eluting DEAE peak, AKII); format: biochemical
T1 construct: AK was purified by a series of column chromatography steps; endogenous in cells; host or cells: carrot (Daucus carota L. cv Danvers) cell suspension culture, protein partly purified by gel filtration and DEAE chromatography
T1 sequence (P37142 88-921): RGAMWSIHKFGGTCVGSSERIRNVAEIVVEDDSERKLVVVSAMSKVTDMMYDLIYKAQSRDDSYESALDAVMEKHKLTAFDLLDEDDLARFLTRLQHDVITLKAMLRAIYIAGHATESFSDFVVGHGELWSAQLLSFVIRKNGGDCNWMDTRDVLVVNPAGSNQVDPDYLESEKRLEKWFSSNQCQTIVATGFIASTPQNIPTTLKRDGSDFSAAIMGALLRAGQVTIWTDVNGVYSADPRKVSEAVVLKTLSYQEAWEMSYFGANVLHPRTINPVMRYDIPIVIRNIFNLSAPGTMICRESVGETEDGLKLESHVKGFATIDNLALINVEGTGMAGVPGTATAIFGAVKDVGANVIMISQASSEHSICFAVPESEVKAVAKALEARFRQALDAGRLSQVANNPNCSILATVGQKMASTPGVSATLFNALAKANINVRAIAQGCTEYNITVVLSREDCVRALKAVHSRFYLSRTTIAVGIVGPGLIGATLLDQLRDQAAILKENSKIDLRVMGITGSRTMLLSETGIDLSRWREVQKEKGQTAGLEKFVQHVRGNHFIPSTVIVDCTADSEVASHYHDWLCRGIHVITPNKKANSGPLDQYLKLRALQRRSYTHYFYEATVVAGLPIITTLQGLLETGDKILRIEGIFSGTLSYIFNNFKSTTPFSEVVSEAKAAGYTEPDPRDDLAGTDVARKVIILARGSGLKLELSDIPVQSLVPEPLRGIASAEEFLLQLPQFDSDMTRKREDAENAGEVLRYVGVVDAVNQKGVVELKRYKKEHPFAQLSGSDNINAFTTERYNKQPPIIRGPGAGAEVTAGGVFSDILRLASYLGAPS
Method: (§1) The first eluting peak (28-32 min), AKI, was inhibited by lysine and was relatively insensitive to threonine (See Table II). The second peak (44-48 min), AKII, was inhibited by threonine and was relatively insensitive to lysine. These two peaks were kinetically different as well as having different feedback inhibition patterns. The Km(asp) for AKI was approximately 1 mM and for AKII was approximately 9 mM. Experimental conditions could affect which AK activities were observed. AK activity inhibited by lysine was not observed unless lysine was added to the homogenization buffer. If the pH of the sample was lowered to pH 6 before anion exchange, sensitivity to lysine was lost, although the total amount of AK activity remained unchanged. […] Furthermore, the lysine-sensitive activity could not be eluted from the cation-exchange medium with KC1.
AK was purified by a series of column chromatography steps. The cells were harvested after 5 days and disrupted in a nitrogen bomb as described for HSDH (B. Matthews (1989), supra) except that the threonine concentration was reduced to 1 mM and 1 mM lysine was added to the extraction buffer. The crude extract was concentrated by 60% ammonium sulfate before the first gel filtration through Biogel A-0.5 m (4.5 cm×47 cm) equilibrated with 50 mM Tris-HCl pH 7.5, 10 mM 2-mercaptoethanol, 1 mM EDTA, 1 mM lysine, 1 mM threonine and 20% glycerol. Fractions containing AK activity were combined, concentrated by the addition of an equal volume of saturated ammonium sulfate for a second gel filtration through Sephadex G-150 (2.5 cm×39 cm) and equilibrated with the same buffer plus 0.2 M KC1. Fractions with AK activity were combined, concentrated by the addition of an equal volume of saturated ammonium sulfate and dialyzed against 16 mM Tris-HCl pH 7.5, 10 mM 2-mercaptoethanol, 1 mM lysine, 1 mM threonine and 20% glycerol. The dialyzed sample was loaded onto an Altex Spherogel TSK DEAE-5PW column (21.5 mm×15 cm). AK activity was eluted over 65 min with a gradient from 0-0.5 M KCl in 20 mM Mes pH 6, 5 mM 2-mercaptoethanol, 1 mM lysine, 1 mM threonine, and 20% glycerol. Fractions containing activity were combined, diluted four-fold and applied to an Altex Spherogel TSK DEAE-5PW column (7.5 mm×7.5 cm) equilibrated with 50 mM Tris-HCl pH 7.5 containing 5 mM 2-mercaptoethanol,1 mM lysine, 1 mM threonine and 20% glycerol fractions containing AK activity were combined and diluted four-fold and reapplied to the column equilibrated with the same buffer containing 20 mM aspartate. Fractions with AK activity were concentrated by filtration through Centricon-303 filters (Amicon) and stored at -20° C.
Aspartokinase activity was assayed by the hydroxamate method as described in P. Bryan et al., Biochem Biophys Res Comm 41: 1211-1217 (1970). […]

[3] = substrate: N[C@@H](CC(=O)O)C(=O)O; experiment: as above; format: biochemical, Daucus carota; conditions: other: AKII, second peak (44-48 min) from DEAE pH 6, 37.0 °C
Method: as §1
AK was purified by a series of column chromatography steps. The cells were harvested after 5 days and disrupted in a nitrogen bomb as described for HSDH (B. Matthews (1989), supra) except that the threonine concentration was reduced to 1 mM and 1 mM lysine was added to the extraction buffer. The crude extract was concentrated by 60% ammonium sulfate before the first gel filtration through Biogel A-0.5 m (4.5 cm×47 cm) equilibrated with 50 mM Tris-HCl pH 7.5, 10 mM 2-mercaptoethanol, 1 mM EDTA, 1 mM lysine, 1 mM threonine and 20% glycerol. […]

Molecule: NCCCC[C@H](N)C(=O)O [lys, lysine]
- % Control AK activity +lys (10 mM) ([1]; prep ak32I): 21 % Control
- % Control AK activity +lys (10 mM) ([1]; prep ak33I): 39 % Control
- remaining activity at 10000 µM ([2]; read-out: % Control AK activity +lys (10 mM), prep ak33II, 10 mM lysine): 75%
- remaining activity at 10000 µM ([2]; read-out: % Control AK activity +lys (10 mM), prep ak45II, 10 mM lysine): 91%

Molecule: C[C@@H](O)[C@H](N)C(=O)O [thr, threonine]
- % Control AK activity +thr (10 mM) ([1]; prep ak32I): 68 % Control
- % Control AK activity +thr (10 mM) ([1]; prep ak33I): 71 % Control
- remaining activity at 10000 µM ([2]; prep ak33II, 10 mM threonine, read-out: % Control AK activity +thr (10 mM)): 32%
- remaining activity at 10000 µM ([2]; prep ak45II, 10 mM threonine, read-out: % Control AK activity +thr (10 mM)): 33%

B1: carrot (Daucus carota L. cv Danvers) aspartokinase form II (AKII, Peak II; threonine-sensitive) of the bifunctional AK-HSDH protein (Daucus carota) (protein)
chain: RGAMWSIHKFGGTCVGSSERIRNVAEIVVEDDSERKLVVVSAMSKVTDMMYDLIYKAQSRDDSYESALDAVMEKHKLTAFDLLDEDDLARFLTRLQHDVITLKAMLRAIYIAGHATESFSDFVVGHGELWSAQLLSFVIRKNGGDCNWMDTRDVLVVNPAGSNQVDPDYLESEKRLEKWFSSNQCQTIVATGFIASTPQNIPTTLKRDGSDFSAAIMGALLRAGQVTIWTDVNGVYSADPRKVSEAVVLKTLSYQEAWEMSYFGANVLHPRTINPVMRYDIPIVIRNIFNLSAPGTMICRESVGETEDGLKLESHVKGFATIDNLALINVEGTGMAGVPGTATAIFGAVKDVGANVIMISQASSEHSICFAVPESEVKAVAKALEARFRQALDAGRLSQVANNPNCSILATVGQKMASTPGVSATLFNALAKANINVRAIAQGCTEYNITVVLSREDCVRALKAVHSRFYLSRTTIAVGIVGPGLIGATLLDQLRDQAAILKENSKIDLRVMGITGSRTMLLSETGIDLSRWREVQKEKGQTAGLEKFVQHVRGNHFIPSTVIVDCTADSEVASHYHDWLCRGIHVITPNKKANSGPLDQYLKLRALQRRSYTHYFYEATVVAGLPIITTLQGLLETGDKILRIEGIFSGTLSYIFNNFKSTTPFSEVVSEAKAAGYTEPDPRDDLAGTDVARKVIILARGSGLKLELSDIPVQSLVPEPLRGIASAEEFLLQLPQFDSDMTRKREDAENAGEVLRYVGVVDAVNQKGVVELKRYKKEHPFAQLSGSDNINAFTTERYNKQPPIIRGPGAGAEVTAGGVFSDILRLASYLGAPS
notes: AK was purified by a series of column chromatography steps; The cells were harvested after 5 days; endogenous in cells; host or cells: carrot (Daucus carota L. cv Danvers) cell suspension culture, protein partly purified by gel filtration and DEAE chromatography
- Km [3]: 9 mM
